# According to ChEMBL document CHEMBL5154886, “Novel Capsid Inhibitors for Treating HIV Infection” (ACS Med Chem Lett, 2022):
# System: Human immunodeficiency virus 1
# Experiment: Antiviral activity against HIV-1 IIIB infected in human MT4 cells assessed as inhibition of viral replication measured after 5 days by Celltiter-Glo assay
# Format: functional, organism-based
# Settings: Human immunodeficiency virus 1, IIIB, MT4, 120 h
row,SMILES,EC50
1,Cc1nc2nc([C@H](Cc3cc(F)cc(F)c3)NC(=O)Cn3nc(C(F)(F)F)c4c3C(F)(F)[C@@H]3C[C@H]43)c(-c3ccc(Cl)c4c(NS(C)(=O)=O)nn(C)c34)cc2[nH]1,2.4 nM
2,COCc1nc2nc([C@H](Cc3cc(F)cc(F)c3)NC(=O)Cn3nc(C(F)F)c4c3C(F)(F)[C@@H]3C[C@H]43)c(-c3ccc(Cl)c4c(NS(C)(=O)=O)nn(C)c34)cc2[nH]1,1.5 nM
3,COCc1nc2nc([C@H](Cc3cc(F)cc(F)c3)NC(=O)Cn3nc(C(F)(F)F)c4c3C(F)(F)[C@@H]3C[C@H]43)c(-c3ccc(Cl)c4c(NS(C)(=O)=O)nn(C)c34)cc2[nH]1,2.1 nM
4,Cc1nc2nc([C@H](Cc3cc(F)cc(F)c3)NC(=O)Cn3nc(C(F)F)c4c3C(F)(F)[C@@H]3C[C@H]43)c(-c3ccc(Cl)c4c(NS(C)(=O)=O)nn(C)c34)cc2[nH]1,1.6 nM
5,Cn1nc(N)c2cccc(-c3cc4sc(N5CC(C)(O)C5)nc4nc3[C@H](Cc3cc(F)cc(F)c3)NC(=O)Cn3nc(C(F)F)c4c3C3CC3CC4)c21 (stereo partly specified),1.3 nM
6,Cn1cc(-c2nc3nc([C@H](Cc4cc(F)cc(F)c4)NC(=O)Cn4nc(C(F)F)c5c4C(F)(F)[C@@H]4C[C@H]54)c(-c4ccc(Cl)c5c(NS(C)(=O)=O)nn(C)c45)cc3[nH]2)cn1,3 nM
